From ChEMBL document CHEMBL5212743, “Selectivity Literature for EUbOPEN Chemogenomics Library wave 3” (2023)
One block for each molecule: values may come before it.

Tests used:
[1] = molecular target: T1, Serine/threonine-protein kinase TAO3 (Homo sapiens) (UniProt Q9H2K8); test: Selectivity interaction (KinomeScan (DiscoverX)) EUB0000178b TAOK3; settings: at 1 µM
T1 sequence (whole entry): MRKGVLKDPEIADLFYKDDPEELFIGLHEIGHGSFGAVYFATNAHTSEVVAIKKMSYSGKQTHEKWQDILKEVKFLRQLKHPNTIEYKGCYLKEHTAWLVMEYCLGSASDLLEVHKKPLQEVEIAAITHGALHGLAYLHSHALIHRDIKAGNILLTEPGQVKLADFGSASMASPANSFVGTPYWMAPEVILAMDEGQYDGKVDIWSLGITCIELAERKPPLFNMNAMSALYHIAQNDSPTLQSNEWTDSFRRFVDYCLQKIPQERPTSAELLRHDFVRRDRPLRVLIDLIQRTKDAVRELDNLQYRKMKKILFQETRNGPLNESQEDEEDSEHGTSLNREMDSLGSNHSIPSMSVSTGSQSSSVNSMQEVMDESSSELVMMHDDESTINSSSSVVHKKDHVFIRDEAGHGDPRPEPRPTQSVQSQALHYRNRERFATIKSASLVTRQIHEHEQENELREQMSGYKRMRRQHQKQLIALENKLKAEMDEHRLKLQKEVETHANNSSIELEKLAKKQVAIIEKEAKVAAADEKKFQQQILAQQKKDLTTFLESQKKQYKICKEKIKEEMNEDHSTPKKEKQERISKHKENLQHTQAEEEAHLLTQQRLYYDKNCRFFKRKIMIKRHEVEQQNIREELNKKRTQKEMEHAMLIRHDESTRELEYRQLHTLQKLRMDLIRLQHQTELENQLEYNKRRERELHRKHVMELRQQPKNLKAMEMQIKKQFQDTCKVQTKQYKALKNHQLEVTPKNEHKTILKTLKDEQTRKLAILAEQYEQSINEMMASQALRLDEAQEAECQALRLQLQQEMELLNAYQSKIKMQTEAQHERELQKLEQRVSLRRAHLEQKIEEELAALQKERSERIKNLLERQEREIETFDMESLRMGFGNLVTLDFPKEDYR

Aurora kinase B = Aurora kinase B (Homo sapiens, UniProt Q96GD4); test: Selectivity interaction (KinomeScan (DiscoverX)) EUB0000178b AURKB; settings: at 1 µM
Aurora kinase B, sequence (Q96GD4 whole entry): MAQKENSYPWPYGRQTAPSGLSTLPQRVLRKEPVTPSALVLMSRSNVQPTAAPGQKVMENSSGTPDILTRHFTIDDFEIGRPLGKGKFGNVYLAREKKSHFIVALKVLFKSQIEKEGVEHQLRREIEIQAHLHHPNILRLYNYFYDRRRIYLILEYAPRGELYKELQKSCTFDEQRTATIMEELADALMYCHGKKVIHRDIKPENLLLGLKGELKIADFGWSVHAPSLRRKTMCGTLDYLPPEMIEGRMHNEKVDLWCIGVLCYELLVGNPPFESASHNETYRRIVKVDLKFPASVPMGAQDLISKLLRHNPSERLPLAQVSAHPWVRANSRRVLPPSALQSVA

[2] = molecular target: Dual specificity mitogen-activated protein kinase kinase 1 (Homo sapiens, UniProt Q02750); test: Selectivity interaction (Kinase panel (University of Dundee)) EUB0000169b MAP2K1; settings: at 10 µM
Dual specificity mitogen-activated protein kinase kinase 1, sequence (Q02750 whole entry): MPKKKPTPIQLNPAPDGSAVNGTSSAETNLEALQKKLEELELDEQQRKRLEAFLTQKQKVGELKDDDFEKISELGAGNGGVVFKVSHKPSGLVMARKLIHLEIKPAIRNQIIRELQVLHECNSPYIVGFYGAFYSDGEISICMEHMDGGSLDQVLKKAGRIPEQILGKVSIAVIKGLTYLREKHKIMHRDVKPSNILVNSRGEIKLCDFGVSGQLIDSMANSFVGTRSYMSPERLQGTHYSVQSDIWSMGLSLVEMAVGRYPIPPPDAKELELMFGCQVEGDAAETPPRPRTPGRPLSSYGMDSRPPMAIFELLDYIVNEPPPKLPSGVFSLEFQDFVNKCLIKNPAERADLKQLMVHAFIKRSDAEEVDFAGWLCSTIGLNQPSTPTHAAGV

[3] = molecular target: Tyrosine-protein kinase Lck (Homo sapiens, UniProt P06239); test: Selectivity interaction (Kinase panel (University of Dundee)) EUB0000169b LCK; settings: at 10 µM
Tyrosine-protein kinase Lck, sequence (P06239 2-509 limits assumed): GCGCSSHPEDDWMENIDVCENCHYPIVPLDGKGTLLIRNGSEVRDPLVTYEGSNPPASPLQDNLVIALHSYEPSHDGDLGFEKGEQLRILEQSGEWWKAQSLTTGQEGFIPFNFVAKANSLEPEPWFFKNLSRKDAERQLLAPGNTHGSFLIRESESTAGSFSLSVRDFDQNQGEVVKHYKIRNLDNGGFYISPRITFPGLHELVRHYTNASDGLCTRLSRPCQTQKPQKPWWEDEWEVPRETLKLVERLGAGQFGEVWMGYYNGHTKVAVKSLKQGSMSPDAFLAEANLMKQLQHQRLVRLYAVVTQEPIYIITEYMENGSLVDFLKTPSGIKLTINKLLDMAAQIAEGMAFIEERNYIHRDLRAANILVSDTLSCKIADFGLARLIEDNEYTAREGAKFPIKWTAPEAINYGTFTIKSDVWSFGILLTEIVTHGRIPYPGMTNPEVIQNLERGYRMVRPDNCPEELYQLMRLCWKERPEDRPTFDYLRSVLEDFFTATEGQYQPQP

[4] = molecular target: Mitogen-activated protein kinase 11 (Homo sapiens) (UniProt Q15759); test: Selectivity interaction (Kinase panel (University of Dundee)) EUB0000169b MAPK11; settings: at 10 µM
[5] = molecular target: Serine/threonine-protein kinase 3 (Homo sapiens) (UniProt Q13188); test: Selectivity interaction (KinomeScan (DiscoverX)) EUB0000698a STK3; settings: at 10 µM
Serine/threonine-protein kinase 3 (Homo sapiens), sequence (Q13188 whole entry): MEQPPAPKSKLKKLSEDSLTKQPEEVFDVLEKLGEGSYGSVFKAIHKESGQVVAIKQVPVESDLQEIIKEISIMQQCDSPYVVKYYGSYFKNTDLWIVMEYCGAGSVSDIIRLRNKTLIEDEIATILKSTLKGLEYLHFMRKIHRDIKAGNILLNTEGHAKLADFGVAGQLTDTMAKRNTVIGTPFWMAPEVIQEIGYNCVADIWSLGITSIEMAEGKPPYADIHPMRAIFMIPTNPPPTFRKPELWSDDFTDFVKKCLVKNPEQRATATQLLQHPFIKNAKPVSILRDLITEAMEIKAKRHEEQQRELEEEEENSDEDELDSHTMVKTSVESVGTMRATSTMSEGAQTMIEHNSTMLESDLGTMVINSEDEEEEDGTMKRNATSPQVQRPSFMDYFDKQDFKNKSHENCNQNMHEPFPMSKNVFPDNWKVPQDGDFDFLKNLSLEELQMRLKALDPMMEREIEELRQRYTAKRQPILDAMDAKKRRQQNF

[6] = molecular target: Dual specificity protein kinase CLK1 (Homo sapiens, UniProt P49759); test: Selectivity interaction (KinomeScan (DiscoverX)) EUB0000702a CLK1; settings: at 1 µM
Dual specificity protein kinase CLK1, sequence (P49759 whole entry, looked up): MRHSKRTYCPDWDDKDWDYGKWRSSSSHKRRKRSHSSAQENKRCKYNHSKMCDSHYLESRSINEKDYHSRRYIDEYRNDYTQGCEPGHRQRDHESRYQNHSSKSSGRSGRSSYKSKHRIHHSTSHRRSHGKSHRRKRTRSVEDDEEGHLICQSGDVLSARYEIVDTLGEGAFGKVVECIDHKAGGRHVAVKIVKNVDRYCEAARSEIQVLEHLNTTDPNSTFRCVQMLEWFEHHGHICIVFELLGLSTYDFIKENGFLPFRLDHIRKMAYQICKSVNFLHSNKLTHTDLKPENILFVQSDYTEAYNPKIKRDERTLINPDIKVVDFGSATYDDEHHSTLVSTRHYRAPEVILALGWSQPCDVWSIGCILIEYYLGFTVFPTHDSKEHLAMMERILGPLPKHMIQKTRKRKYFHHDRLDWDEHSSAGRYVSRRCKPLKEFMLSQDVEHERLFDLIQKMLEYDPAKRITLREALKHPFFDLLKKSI

[7] = molecular target: Tyrosine-protein kinase JAK2 (Homo sapiens, UniProt O60674); test: Selectivity interaction (KinomeScan (DiscoverX)) EUB0000702a JAK2; settings: at 1 µM
Tyrosine-protein kinase JAK2, sequence (O60674 whole entry): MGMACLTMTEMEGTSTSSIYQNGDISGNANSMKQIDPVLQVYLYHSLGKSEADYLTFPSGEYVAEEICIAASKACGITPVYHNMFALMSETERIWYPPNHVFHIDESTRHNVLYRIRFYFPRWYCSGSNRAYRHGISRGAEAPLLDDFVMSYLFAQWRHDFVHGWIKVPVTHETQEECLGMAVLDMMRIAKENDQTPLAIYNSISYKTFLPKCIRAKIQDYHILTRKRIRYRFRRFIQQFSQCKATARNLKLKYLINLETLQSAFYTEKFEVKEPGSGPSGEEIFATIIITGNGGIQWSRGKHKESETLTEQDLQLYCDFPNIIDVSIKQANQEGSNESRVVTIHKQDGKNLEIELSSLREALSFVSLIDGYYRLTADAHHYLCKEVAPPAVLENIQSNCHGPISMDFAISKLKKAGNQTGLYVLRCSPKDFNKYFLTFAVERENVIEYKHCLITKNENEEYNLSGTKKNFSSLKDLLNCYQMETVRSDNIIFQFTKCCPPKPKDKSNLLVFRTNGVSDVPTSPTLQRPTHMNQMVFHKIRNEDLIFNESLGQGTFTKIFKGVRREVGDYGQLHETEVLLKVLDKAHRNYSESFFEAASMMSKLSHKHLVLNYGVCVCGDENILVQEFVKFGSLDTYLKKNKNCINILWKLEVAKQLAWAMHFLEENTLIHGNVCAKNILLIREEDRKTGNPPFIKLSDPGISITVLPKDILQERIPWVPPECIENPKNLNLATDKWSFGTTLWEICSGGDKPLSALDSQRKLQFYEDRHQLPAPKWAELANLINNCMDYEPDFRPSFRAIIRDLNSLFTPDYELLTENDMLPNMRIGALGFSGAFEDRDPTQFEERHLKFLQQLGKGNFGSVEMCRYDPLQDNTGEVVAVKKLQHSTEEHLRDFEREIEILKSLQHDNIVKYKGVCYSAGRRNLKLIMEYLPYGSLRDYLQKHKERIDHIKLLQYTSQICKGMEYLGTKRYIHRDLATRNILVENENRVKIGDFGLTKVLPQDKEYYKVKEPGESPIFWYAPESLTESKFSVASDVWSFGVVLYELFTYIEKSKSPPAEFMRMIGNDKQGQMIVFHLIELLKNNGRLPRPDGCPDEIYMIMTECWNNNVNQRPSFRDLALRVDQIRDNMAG

[8] = molecular target: Bone morphogenetic protein receptor type-1B (Homo sapiens) (UniProt O00238); test: Selectivity interaction (KinomeScan (DiscoverX)) EUB0000702a BMPR1B; settings: at 1 µM
Bone morphogenetic protein receptor type-1B (Homo sapiens), sequence (O00238 whole entry): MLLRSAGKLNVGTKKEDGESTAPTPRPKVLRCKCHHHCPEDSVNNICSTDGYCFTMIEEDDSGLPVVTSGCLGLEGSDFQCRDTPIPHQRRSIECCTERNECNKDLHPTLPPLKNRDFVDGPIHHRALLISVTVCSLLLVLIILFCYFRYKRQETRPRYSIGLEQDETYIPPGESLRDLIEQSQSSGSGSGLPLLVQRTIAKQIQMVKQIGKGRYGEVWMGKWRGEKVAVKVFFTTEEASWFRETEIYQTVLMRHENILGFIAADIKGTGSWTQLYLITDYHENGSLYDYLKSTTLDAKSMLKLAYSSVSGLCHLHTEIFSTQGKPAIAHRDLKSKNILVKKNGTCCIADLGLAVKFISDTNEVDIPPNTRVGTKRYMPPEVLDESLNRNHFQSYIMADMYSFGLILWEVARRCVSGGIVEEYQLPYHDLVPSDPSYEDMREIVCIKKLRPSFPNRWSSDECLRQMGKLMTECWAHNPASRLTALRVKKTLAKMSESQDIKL

[9] = molecular target: Receptor-type tyrosine-protein kinase FLT3 (Homo sapiens) (UniProt P36888); settings: at 1 µM
Receptor-type tyrosine-protein kinase FLT3 (Homo sapiens), sequence (P36888 whole entry): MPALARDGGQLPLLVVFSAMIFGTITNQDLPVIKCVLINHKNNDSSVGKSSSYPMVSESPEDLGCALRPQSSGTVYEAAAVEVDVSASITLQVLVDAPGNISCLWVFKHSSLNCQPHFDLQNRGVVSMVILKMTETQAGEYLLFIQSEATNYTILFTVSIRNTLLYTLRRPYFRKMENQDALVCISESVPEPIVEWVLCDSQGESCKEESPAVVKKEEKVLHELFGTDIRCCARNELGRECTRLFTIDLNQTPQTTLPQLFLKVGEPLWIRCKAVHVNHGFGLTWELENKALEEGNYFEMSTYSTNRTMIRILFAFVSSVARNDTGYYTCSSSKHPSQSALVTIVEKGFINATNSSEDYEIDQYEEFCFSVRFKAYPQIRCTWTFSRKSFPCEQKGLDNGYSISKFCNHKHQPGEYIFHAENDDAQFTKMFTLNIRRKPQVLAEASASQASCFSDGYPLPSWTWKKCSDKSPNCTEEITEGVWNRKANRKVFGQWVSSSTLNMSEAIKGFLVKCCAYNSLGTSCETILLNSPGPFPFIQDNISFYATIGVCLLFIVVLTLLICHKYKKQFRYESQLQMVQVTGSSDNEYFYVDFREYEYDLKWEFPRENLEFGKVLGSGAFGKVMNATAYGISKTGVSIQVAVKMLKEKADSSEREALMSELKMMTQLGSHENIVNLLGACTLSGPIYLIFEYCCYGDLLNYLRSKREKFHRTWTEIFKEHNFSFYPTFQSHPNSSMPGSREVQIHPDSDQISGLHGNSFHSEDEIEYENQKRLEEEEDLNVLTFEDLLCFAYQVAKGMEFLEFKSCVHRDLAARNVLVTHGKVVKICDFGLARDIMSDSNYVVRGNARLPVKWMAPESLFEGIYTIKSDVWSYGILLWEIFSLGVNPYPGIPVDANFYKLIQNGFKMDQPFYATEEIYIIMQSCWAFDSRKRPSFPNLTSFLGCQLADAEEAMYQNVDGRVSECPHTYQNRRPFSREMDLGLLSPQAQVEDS

[10] = molecular target: T1, Serine/threonine-protein kinase TAO3 (Homo sapiens); test: Selectivity interaction (KinomeScan (DiscoverX)) EUB0000305b TAOK3; settings: CellTiter-Glo assay (Promega, proliferation in ACHN cells): IC50 = […] nM, https://www.sgc-ffm.uni-frankfurt.de/#!specificprobeove, at 100 nM

- % of control [6]: 4.4%
- % of control [7]: 3.8%
- % of control [8]: 3.6%
Compound: CN(c1ccnc(CNc2nc(Nc3ccc4c(c3)CC(=O)N4)ncc2C(F)(F)F)n1)S(C)(=O)=O [PF-00911705]

- % of control [10]: 41%
Compound: C[C@H](c1ccnc(Nc2nc3ccc(-c4cc(N(C)C)ncn4)cc3[nH]2)c1)N1CCN(C(=O)CC(F)(F)F)CC1 [BAY-985]

Continued, molecule first:

Compound: CN1C(=O)c2sccc2N(C)c2nc(Nc3ccc(S(N)(=O)=O)cc3)ncc21
- % of control [1]: 4.5%
- % of control (Aurora kinase B): 3.4%

Compound: CC[C@@H]1C(=O)N(C)c2cnc(Nc3ccc(C(=O)NC4CCN(C)CC4)cc3OC)nc2N1C1CCCC1
- % of control [2]: 115%
- % of control [3]: 55%
- % of control [4]: 97%

Compound: COc1cc2ncn(-c3cc(OCc4ccccc4C(F)(F)F)c(C(N)=O)s3)c2cc1OC [GW843682X]
- % of control [5]: 1.8%

Compound: CCOc1cn(-c2ccc(F)cc2C)nc1C(=O)Nc1ccc(Oc2ccnc3cc(OC)c(OC)cc23)c(F)c1
- % of control [9]: < 10%
